Source: patent US12643903B2, “Bifunctional compounds for degradation of EGFR and related methods of use” (BeiGene, Ltd., priority 2020, dated 2026)

How the values were obtained:
Assay type in all cases: cell-based
Settings in all cases: 16 h treatment, EGFR degradation by HTRF
EGFR LTC = molecular target: T1, EGFR LTC (Homo sapiens, UniProt P00533, C797S/L858R/T790M); test: Cell Degradation 3: EGFR degradation in BaF3 cells (LTC), HTRF assay
T1 construct: expressed in transfected cells; host or cells: BaF3
T1 sequence (P00533 25-1210 T790M/C797S/L858R): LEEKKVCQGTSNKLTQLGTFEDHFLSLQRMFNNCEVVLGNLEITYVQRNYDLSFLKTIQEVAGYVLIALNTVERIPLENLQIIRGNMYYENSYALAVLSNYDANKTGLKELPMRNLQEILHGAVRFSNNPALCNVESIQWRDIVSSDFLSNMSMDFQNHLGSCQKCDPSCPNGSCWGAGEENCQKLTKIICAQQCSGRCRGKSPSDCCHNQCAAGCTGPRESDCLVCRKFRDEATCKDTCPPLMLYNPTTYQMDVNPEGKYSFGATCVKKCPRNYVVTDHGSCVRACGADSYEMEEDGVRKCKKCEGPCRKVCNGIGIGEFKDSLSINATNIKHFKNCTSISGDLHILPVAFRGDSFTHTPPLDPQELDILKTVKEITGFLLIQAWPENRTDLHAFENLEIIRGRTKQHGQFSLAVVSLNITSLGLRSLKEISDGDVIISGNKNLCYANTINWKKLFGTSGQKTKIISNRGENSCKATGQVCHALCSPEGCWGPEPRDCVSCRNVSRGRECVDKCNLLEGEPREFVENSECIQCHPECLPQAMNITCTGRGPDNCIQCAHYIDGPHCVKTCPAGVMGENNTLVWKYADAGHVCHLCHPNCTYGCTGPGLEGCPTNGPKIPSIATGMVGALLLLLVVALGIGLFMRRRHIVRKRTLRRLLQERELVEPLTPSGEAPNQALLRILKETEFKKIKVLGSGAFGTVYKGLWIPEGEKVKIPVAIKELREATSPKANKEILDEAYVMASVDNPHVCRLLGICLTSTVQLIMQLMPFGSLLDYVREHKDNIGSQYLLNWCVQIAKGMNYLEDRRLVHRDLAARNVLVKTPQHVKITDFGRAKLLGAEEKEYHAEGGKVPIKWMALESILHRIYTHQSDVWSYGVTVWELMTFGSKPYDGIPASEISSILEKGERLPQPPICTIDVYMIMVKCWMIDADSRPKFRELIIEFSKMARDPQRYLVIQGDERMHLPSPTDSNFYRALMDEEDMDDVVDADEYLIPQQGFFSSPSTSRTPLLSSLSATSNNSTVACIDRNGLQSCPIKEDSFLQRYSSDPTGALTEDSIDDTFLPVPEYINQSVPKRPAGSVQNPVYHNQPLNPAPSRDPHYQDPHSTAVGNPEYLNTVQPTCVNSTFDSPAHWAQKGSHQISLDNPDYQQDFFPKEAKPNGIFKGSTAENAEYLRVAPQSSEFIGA
Description: Cell Degradation 3 Cell Treatment
BaF3 cells are treated with compounds diluted in 0.2% DMSO, dilution is done according to the following protocol: (1) make 500× stock solution in DMSO from 5 mM by 4-fold dilution, total 8 doses were included; (2) make 2× solution in cell culture medium by transferring 0.5 μl 500× stock solution into 125 μl medium; (3) 30 μl of 2× solution is added to cells and incubate for 16 h.
After 16 h treatment, add 20 μl 4×lysis buffer to each well; seal the plate and incubate 1 hour at room temperature on a plate shaker; Once the cells are lysed, 16 μL of cell lysate are transferred to a PE 384-well HTRF detection plate (for triple mutant cells, the lysate were diluted by the qual volume 1×lysis buffer before transfer); 4 μL of pre-mixed HTRF antibodies are added to each well; Cover the plate with a plate sealer, spin 1000 rpm for 1 min, Incubate overnight at room temperature; Read on BMG PheraStar with HTRF protocol (337 nm-665 nm-620 nm).
The IC50 (DC50) value of a compound can be obtained by fitting the following equation Y=Bottom+(TOP−Bottom)/(1+((IC50/X)^hillslope))
Wherein, X and Y are known values, and IC50, Hillslope, Top and Bottom are the parameters obtained by fitting with software. Y is the inhibition percentage (calculated from the equation), X is the concentration of the compound; IC50 is the concentration of the compound when the 50% inhibition is reached. The smaller the IC50 value is, the stronger the inhibitory ability of the compound is. Vice versa, the higher the IC50 value is, the weaker the ability the inhibitory ability of the compound is; Hillslope represents the slope of the fitted curve, generally around 1*; Bottom represents the minimum value of the curve obtained by data fitting, which is generally 0%±20%; Top represents the maximum value of the curve obtained by data fitting, which is generally 100%±20%. The experimental data were fitted by calculating and analyzing with Dotmatics data analysis software.

EGFR [1] = molecular target: T2, EGFR (Homo sapiens, UniProt P00533, L858R/T790M); test: Cell Degradation 1: EGFR degradation in H1975 cells, HTRF assay
T2 construct: endogenous in cells; host or cells: H1975
T2 sequence (P00533 25-1210 T790M/L858R): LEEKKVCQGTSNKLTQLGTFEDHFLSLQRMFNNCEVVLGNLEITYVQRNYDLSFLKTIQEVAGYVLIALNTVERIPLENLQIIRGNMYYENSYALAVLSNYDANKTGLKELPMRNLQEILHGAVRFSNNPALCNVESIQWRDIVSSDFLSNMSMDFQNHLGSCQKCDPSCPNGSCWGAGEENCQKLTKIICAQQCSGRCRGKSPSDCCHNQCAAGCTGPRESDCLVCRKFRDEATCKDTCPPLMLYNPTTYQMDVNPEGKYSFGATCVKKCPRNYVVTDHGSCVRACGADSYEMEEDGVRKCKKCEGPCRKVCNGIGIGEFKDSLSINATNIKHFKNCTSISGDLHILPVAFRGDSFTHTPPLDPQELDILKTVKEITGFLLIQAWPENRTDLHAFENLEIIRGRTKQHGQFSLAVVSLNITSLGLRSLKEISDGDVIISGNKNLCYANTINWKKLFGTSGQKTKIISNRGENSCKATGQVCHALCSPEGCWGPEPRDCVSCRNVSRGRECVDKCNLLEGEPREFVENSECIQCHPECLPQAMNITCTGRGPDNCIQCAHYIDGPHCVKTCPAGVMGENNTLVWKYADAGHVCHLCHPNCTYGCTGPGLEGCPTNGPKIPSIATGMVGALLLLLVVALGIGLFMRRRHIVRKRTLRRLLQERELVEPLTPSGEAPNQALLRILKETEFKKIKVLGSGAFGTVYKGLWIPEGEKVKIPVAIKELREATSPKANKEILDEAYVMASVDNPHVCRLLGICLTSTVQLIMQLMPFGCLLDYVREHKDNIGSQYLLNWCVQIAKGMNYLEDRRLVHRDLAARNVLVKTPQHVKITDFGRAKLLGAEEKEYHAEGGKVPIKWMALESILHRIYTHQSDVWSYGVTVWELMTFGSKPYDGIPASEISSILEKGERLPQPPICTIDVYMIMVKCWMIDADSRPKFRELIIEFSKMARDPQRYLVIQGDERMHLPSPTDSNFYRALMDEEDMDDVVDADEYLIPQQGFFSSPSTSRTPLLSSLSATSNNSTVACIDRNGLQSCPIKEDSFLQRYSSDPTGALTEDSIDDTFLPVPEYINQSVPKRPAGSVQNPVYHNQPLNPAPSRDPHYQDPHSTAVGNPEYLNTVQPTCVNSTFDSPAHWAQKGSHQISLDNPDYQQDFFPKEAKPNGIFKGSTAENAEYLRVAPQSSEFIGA
Summary of the method: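 EGFR levels were read by HTRF (337 nm excitation, 665 and 620 nm emission) in lysates of H1975 cells exposed to compound for 16 h, with antibodies incubated overnight at room temperature. Fitting percent inhibition versus concentration to a Hill equation gave DC50.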

EGFR [2] = molecular target: T3, EGFR (Homo sapiens, UniProt P00533, DEL746-750); test: Cell Degradation 2: EGFR degradation in HCC827 cells, HTRF assay
T3 construct: endogenous in cells; host or cells: HCC827
T3 sequence (P00533 with tags, fused parts or gaps DEL746-750): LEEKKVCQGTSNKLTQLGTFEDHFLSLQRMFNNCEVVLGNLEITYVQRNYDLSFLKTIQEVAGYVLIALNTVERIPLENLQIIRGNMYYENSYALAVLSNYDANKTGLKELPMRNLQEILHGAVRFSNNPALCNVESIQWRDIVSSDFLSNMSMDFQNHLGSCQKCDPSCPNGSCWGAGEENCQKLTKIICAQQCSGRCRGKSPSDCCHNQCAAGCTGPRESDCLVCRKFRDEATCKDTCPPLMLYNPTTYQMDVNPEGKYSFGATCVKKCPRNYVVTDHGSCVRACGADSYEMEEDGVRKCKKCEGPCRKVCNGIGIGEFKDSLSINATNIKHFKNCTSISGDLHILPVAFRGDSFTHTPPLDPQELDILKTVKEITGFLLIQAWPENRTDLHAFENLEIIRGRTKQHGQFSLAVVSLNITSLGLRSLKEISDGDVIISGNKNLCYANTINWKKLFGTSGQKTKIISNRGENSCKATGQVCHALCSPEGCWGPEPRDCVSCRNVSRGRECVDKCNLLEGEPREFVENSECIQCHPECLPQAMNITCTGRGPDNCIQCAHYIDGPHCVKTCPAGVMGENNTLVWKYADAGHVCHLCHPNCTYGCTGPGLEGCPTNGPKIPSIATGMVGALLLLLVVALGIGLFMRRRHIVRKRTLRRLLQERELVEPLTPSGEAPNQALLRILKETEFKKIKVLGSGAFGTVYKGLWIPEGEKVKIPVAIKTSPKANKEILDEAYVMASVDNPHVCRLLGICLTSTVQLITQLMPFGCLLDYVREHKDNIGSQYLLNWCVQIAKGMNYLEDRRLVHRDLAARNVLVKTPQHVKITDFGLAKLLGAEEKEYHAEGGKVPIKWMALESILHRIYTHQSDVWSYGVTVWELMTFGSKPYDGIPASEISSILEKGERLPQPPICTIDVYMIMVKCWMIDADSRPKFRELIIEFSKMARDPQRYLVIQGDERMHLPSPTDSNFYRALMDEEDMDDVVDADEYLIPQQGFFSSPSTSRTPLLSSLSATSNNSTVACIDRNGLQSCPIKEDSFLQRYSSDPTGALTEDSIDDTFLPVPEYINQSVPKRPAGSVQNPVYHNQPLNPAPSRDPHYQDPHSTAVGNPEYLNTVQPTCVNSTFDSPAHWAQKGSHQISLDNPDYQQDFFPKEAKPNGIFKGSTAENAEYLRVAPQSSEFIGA
T3 sequence (Q96SW2 whole entry partner): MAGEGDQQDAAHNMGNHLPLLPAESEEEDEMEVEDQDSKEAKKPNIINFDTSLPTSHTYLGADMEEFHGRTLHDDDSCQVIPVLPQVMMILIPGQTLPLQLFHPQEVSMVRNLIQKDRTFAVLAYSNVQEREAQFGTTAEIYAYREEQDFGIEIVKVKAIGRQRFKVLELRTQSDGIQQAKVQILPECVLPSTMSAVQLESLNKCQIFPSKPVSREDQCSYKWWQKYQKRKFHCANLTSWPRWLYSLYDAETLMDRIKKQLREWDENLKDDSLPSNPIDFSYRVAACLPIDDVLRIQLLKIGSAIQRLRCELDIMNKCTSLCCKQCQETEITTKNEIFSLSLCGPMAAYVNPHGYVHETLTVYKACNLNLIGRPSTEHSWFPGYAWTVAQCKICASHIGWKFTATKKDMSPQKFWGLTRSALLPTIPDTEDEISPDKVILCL
Summary of the method: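 DC50 values derive from four-parameter fits of percent inhibition versus concentration. The HTRF read-out (665/620 nm ratio, 337 nm excitation) followed 16 h compound exposure of HCC827 cells, 1 h lysis and overnight room-temperature incubation with the HTRF antibodies.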

CCc1cc(Nc2ncc(Br)c(Nc3ccc(CC)c4c3N(S(C)(=O)=O)CC4)n2)c(OC)cc1N1CCC(N2CCN(C(=O)[C@@H]3CCN(c4cc(F)c([C@H]5CCC(=O)NC5=O)c(F)c4)C3)CC2)CC1 [Example 198, (R)-3-(4-((R)-3-(4-(1-(4-((5-bromo-4-((4-ethyl-1-(methylsulfonyl)indolin-7-yl)amino)pyrimidin-2-yl)amino)-2-ethyl-5-methoxyphenyl)piperidin-4-yl)piperazine-1-carbonyl)pyrrolidin-1-yl)-2,6-difluorophenyl)piperidine-2,6-dione]
DC50 (EGFR LTC): 34 nM

CCc1cc(Nc2ncc(Br)c(Nc3ccc(CC)c4c3N(S(C)(=O)=O)CC4)n2)c(OC)cc1N1CCC(N2CCN(CCc3cc(F)c(C4CCC(=O)NC4=O)c(F)c3)CC2)CC1 (stereo not drawn) [Example 192, 3-(4-(2-(4-(1-(4-((5-bromo-4-((4-ethyl-1-(methylsulfonyl)indolin-7-yl)amino)pyrimidin-2-yl)amino)-2-ethyl-5-methoxyphenyl)piperidin-4-yl)piperazin-1-yl)ethyl)-2,6-difluorophenyl)piperidine-2,6-dione]
DC50 (EGFR LTC): 65 nM

CCc1cc(Nc2ncc(Br)c(Nc3ccc(F)c4c3N(S(C)(=O)=O)CC4)n2)c(OC)cc1N1CCC(N2CCN(C(=O)[C@@H]3CCN(c4cc(F)c([C@H]5CCC(=O)NC5=O)c(F)c4)C3)CC2)CC1 [Example 194, (R)-3-(4-((R)-3-(4-(1-(4-((5-bromo-4-((4-fluoro-1-(methylsulfonyl)indolin-7-yl)amino)pyrimidin-2-yl)amino)-2-ethyl-5-methoxyphenyl)piperidin-4-yl)piperazine-1-carbonyl)pyrrolidin-1-yl)-2,6-difluorophenyl)piperidine-2,6-dione]
DC50 (EGFR LTC): 29 nM

CCc1cc(Nc2ncc(Br)c(Nc3ccc(C(F)(F)F)c4c3N(S(C)(=O)=O)CC4)n2)c(OC)cc1N1CCC(N2CCN(C(=O)[C@@H]3CCN(c4cc(F)c([C@H]5CCC(=O)NC5=O)c(F)c4)C3)CC2)CC1 [Example 197, (R)-3-(4-((R)-3-(4-(1-(4-((5-bromo-4-((1-(methylsulfonyl)-4-(trifluoromethyl)indolin-7-yl)amino)pyrimidin-2-yl)amino)-2-ethyl-5-methoxyphenyl)piperidin-4-yl)piperazine-1-carbonyl)pyrrolidin-1-yl)-2,6-difluorophenyl)piperidine-2,6-dione]
DC50 (EGFR LTC): 83 nM

CCc1cc(Nc2ncc(Br)c(Nc3ccc(N(C)C)c4c3N(S(C)(=O)=O)CC4)n2)c(OC)cc1N1CCC(N2CCN(CCc3cc(F)c([C@H]4CCC(=O)NC4=O)c(F)c3)CC2)CC1 [Example 200, (R)-3-(4-(2-(4-(1-(4-((5-bromo-4-((4-(dimethylamino)-1-(methylsulfonyl)indolin-7-yl)amino)pyrimidin-2-yl)amino)-2-ethyl-5-methoxyphenyl)piperidin-4-yl)piperazin-1-yl)ethyl)-2,6-difluorophenyl)piperidine-2,6-dione]
DC50 (EGFR LTC): 513 nM

CCc1cc(Nc2ncc(Br)c(Nc3ccc(F)c4c3N(S(C)(=O)=O)CC4)n2)c(OC)cc1N1CCC(N2CCN(CCc3cc(F)c([C@H]4CCC(=O)NC4=O)c(F)c3)CC2)CC1 [Example 195, (R)-3-(4-(2-(4-(1-(4-((5-bromo-4-((4-fluoro-1-(methylsulfonyl)indolin-7-yl)amino)pyrimidin-2-yl)amino)-2-ethyl-5-methoxyphenyl)piperidin-4-yl)piperazin-1-yl)ethyl)-2,6-difluorophenyl)piperidine-2,6-dione]
DC50 (EGFR LTC): 24 nM

CCc1cc(Nc2ncc(Br)c(Nc3ccc(C4CC4)c4c3N(S(C)(=O)=O)CC4)n2)c(OC)cc1N1CCC(N2CCN(CCc3cc(F)c(C4CCC(=O)NC4=O)c(F)c3)CC2)CC1 (stereo not drawn) [Example 193, 3-(4-(2-(4-(1-(4-((5-bromo-4-((4-cyclopropyl-1-(methylsulfonyl)indolin-7-yl)amino)pyrimidin-2-yl)amino)-2-ethyl-5-methoxyphenyl)piperidin-4-yl)piperazin-1-yl)ethyl)-2,6-difluorophenyl)piperidine-2,6-dione]
DC50 (EGFR LTC): 74 nM

CS(=O)(=O)N1CCc2cccc(Nc3nc(Nc4ccc(N5CCC(N6CCN(C(=O)CC7CCN(c8ccc(C9CCC(=O)NC9=O)cc8)CC7)CC6)CC5)c(F)c4)nc4[nH]ccc34)c21 (stereo not drawn) [Example 12, 3-(4-(4-(2-(4-(1-(2-fluoro-4-((4-((1-(methylsulfonyl)indolin-7-yl)amino)-7H-pyrrolo[2,3-d]pyrimidin-2-yl)amino)phenyl)piperidin-4-yl)piperazin-1-yl)-2-oxoethyl)piperidin-1-yl)phenyl)piperidine-2,6-dione]
DC50 (EGFR [1]): 12.4 nM
DC50 (EGFR [2]): 33.5 nM

CS(=O)(=O)N1CCc2cccc(Nc3nc(Nc4ccc(N5CCC(N6CCN(CC7CN(c8ccc9c(c8)C(=O)N(C8CCC(=O)NC8=O)C9=O)C7)CC6)CC5)c(F)c4)nc4[nH]ccc34)c21 (stereo not drawn) [Example 60, 2-(2,6-dioxopiperidin-3-yl)-5-(3-((4-(1-(2-fluoro-4-((4-((1-(methylsulfonyl)indolin-7-yl)amino)-7H-pyrrolo[2,3-d]pyrimidin-2-yl)amino)phenyl)piperidin-4-yl)piperazin-1-yl)methyl)azetidin-1-yl)isoindoline-1,3-dione]
DC50 (EGFR [1]): 4.9 nM
DC50 (EGFR [2]): 14.6 nM

COc1cc(N2CCC(N3CCN(C(=O)CCN4CCN(c5ccc6c(c5)C(=O)N(C5CCC(=O)NC5=O)C6=O)CC4)CC3)CC2)c(C)cc1Nc1ncc(Br)c(Nc2cccc3c2N(S(C)(=O)=O)CC3)n1 (stereo not drawn) [Example 42, 5-(4-(3-(4-(1-(4-((5-bromo-4-((1-(methylsulfonyl)indolin-7-yl)amino)pyrimidin-2-yl)amino)-5-methoxy-2-methylphenyl)piperidin-4-yl)piperazin-1-yl)-3-oxopropyl)piperazin-1-yl)-2-(2,6-dioxopiperidin-3-yl)isoindoline-1,3-dione]
DC50 (EGFR [1]): 13.5 nM
DC50 (EGFR [2]): 4.9 nM

COc1cc(Nc2nc(Nc3cccc4c3N(S(C)(=O)=O)CC4)c3cc[nH]c3n2)ccc1N1CCC(N2CCN(C(=O)[C@@H]3CCN(c4ccc5c(c4)C(=O)N(C4CCC(=O)NC4=O)C5=O)C3)CC2)CC1 (stereo partly drawn) [Example 75, 2-(2,6-dioxopiperidin-3-yl)-5-((R)-3-(4-(1-(2-methoxy-4-((4-((1-(methylsulfonyl)indolin-7-yl)amino)-7H-pyrrolo[2,3-d]pyrimidin-2-yl)amino)phenyl)piperidin-4-yl)piperazine-1-carbonyl)pyrrolidin-1-yl)isoindoline-1,3-dione]
DC50 (EGFR [1]): 3.9 nM
DC50 (EGFR [2]): > 10000 nM

CS(=O)(=O)N1CCc2cccc(Nc3nc(Nc4ccc(N5CCC(N6CCN(CC7CN(c8ccc9c(c8)CN(C8CCC(=O)NC8=O)C9=O)C7)CC6)CC5)c(F)c4)nc4[nH]ccc34)c21 (stereo not drawn) [Example 59, 3-(5-(3-((4-(1-(2-fluoro-4-((4-((1-(methylsulfonyl)indolin-7-yl)amino)-7H-pyrrolo[2,3-d]pyrimidin-2-yl)amino)phenyl)piperidin-4-yl)piperazin-1-yl)methyl)azetidin-1-yl)-1-oxoisoindolin-2-yl)piperidine-2,6-dione]
DC50 (EGFR [1]): 2.7 nM
DC50 (EGFR [2]): 3.1 nM

COc1cc(Nc2nc(Nc3cccc4c3N(S(C)(=O)=O)CC4)c3cc[nH]c3n2)ccc1N1CCC(N2CCN(C(=O)C3CN(c4ccc5c(c4)C(=O)N(C4CCC(=O)NC4=O)C5=O)C3)CC2)CC1 (stereo not drawn) [Example 73, 2-(2,6-dioxopiperidin-3-yl)-5-(3-(4-(1-(2-methoxy-4-((4-((1-(methylsulfonyl)indolin-7-yl)amino)-7H-pyrrolo[2,3-d]pyrimidin-2-yl)amino)phenyl)piperidin-4-yl)piperazine-1-carbonyl)azetidin-1-yl)isoindoline-1,3-dione]
DC50 (EGFR [1]): 3.4 nM
DC50 (EGFR [2]): 1170 nM

CS(=O)(=O)N1CCc2cccc(Nc3nc(Nc4ccc(N5CCC(N6CCN(CCCOc7ccc(OC8CCC(=O)NC8=O)cc7)CC6)CC5)c(F)c4)nc4[nH]ccc34)c21 (stereo not drawn) [Example 4, 3-(4-(3-(4-(1-(2-fluoro-4-((4-((1-(methylsulfonyl)indolin-7-yl)amino)-7H-pyrrolo[2,3-d]pyrimidin-2-yl)amino)phenyl)piperidin-4-yl)piperazin-1-yl)propoxy)phenoxy)piperidine-2,6-dione]
DC50 (EGFR [1]): 15.5 nM
DC50 (EGFR [2]): > 10000 nM
